Data taken from patent US20140050779A1, “[…]-2 INHIBITORS AND USES THEREOF” (SINGAPORE HEALTH SERVICES PTE. LTD., priority 2011, published 2014).
Entries after “also recorded” stand apart in the source; their conditions may differ. Values belong to the compound of their own block, whether it stands above or below them.

How the values were obtained:
Assay type in all cases: cell-based
TG-1 [1] = experiment: Western blot of TG proteins in human scleral fibroblasts after muscarinic agents; settings: 0.01-10 μM for 5 days
TG-3 [2] = experiment: as above; settings: 0.01-10 μM for 5 days
TG-5 [3] = experiment: as above; settings: 0.01-10 μM for 5 days
TG-1 [4] = experiment: Western blot of TG proteins in mouse scleral fibroblasts after muscarinic agents; settings: 0.01-10 μM for 5 days
Protocol: (§1) All cells used in examples described herein were between passages 2-4. Passaged cells were plated at a concentration of 2×10^5/mL into 6 well plates containing DMEM with 10% FBS. The cells were seen to attach to the bottom of the culture wells after 4 hours. Old media was removed from wells and 1 mL of drug was added with fresh full medium and incubated at 37° C. Fresh drugs were replaced daily consecutively for the next 5 days to avoid oxidation. The drugs/media was removed and wells were washed twice with 1×PBS. 200 μl of RIPA lysis buffer was added per well and incubated for 5 minutes and cells were scrapped into an eppendorf tube. The cells were stored at −20° C. until sonication. The cells were sonicated on ice thrice at 20% output power for 5 seconds each time and rested 1 minute in between each turn. Cell debris was spun down at 12000 rpm for 20 minutes. The supernatant was poured into a new eppendorf tube and cell concentrations were determined using the Dc Protein assay Kit (Bio-Rad, MA). Passaged cells were plated at a concentration of 1×10^5 into 6 well plates containing DMEM with 10% FBS. The cells were seen to attach to the bottom of the culture wells after 4 hours. Freshly prepared muscarinic agents' at base line, 0.1, 1, 10 and 100 μM concentrations were added for 5 days (Table 2). The culture medium was removed and fresh medium containing the same muscarinic drug added every day to avoid drug changes such as atropine oxidation. Cell lysate was collected for relative quantitative (q) PCR and protein analysis at day 5.
(§2) The cells were lysed by sonification in 1×RIPA lysis buffer (santa cruz biotechnology, Sc-24948) with 10 μl PMSF solution, 10 μl sodium orthovanadate solution and 20 μl protease inhibitor cocktail solution. After centrifugation at 20,000×g at 4° C. for 20 minutes, and the supernatant collected. The protein content in the supernatants was measured using the DC Protein Assay kit (Bio-Rad, MA) following the manufacturer's instructions. Samples were stored at −80° C. until assayed.
(§3) The mouse and human scleral fibroblasts were treated with atropine or carbachol at 0.01, 0.1, 1, 5 and 10 μM concentrations for 5 days. Following 5 days of treatment, the total cellular protein was extracted from these cells and TG proteins detected via Western blot analysis.
(§4) Human and, mouse scleral fibroblast proteins in the supernatant were separated by SDS-PAGE, transferred to nitrocellulose membranes, blocked in 5% BSA in TBST (10 mM Tris-HCl [pH 8.0], 150 mM NaCl, and […] Tween-20) for 2 hours at room temperature, and incubated with the same anti-TG-2 antibody described herein at a dilution of 1:1000 and anti β-tubulin antibodies used as a positive control, for 1 hour at room temperature. The membranes were washed 3 times in TBST and incubated with HRP-conjugated secondary antibody (Chemicon International) at a dilution of 1:2500 for 1 hour at room temperature. Immunoreactive bands were visualized using the enhanced chemiluminescence method (GE Healthcare, Buckinghamshire, UK). The membrane was wrapped in plastic and placed against an X-ray film to expose for an appropriate length of time (30 seconds-5 minutes).

TG-2 [5] = experiment: as above; settings: 0.01-10 μM for 5 days, Western blot
Protocol: as §1, §2, §3, §4

TG-3 [6] = experiment: as above; settings: 0.01-10 μM for 5 days
Protocol: as §1, §2, §3, §4

TG-5 [7] = experiment: as above; settings: 0.01-10 μM for 5 days
TGase 1 transcript = experiment: qPCR of TGases mRNA in mouse scleral fibroblasts after muscarinic agents; settings: 0.01-10 μM for 5 days, qPCR normalized to GAPDH
Protocol: (§5) P2 cultured mouse scleral fibroblasts were treated with atropine or carbachol at different concentrations of 0.01 μM, 0.1 μM, […], 5 μM and 10 μM for 5 days. Following 5 days of treatment, the total RNA was extracted from these cells and TGases transcript level was quantified via qPCR analysis. Height of bars show the means of three independent samples and error bars represent standard deviation. Values are normalized against GAPDH house keeping genes.
as §1
(§6) Total RNA was isolated from cultured human and mouse scleral fibroblasts using TRIzol reagent (Invitrogen life technologies, USA) in accordance with the manufacturer's instructions Chomczynski P, Sacchi N., “Single-step method of RNA isolation by acid guanidinium thiocyanate-phenol-chloroform extraction”, Anal. Biochem. 1987 April; 162(1):156-9. Genomic DNA was removed by digestion with DNase I (Amp Grade; Invitrogen-Gibco) for 15 minutes at room temperature. One microgram of total RNA was reverse-transcribed with random hexamers by using a first-strand cDNA synthesis kit (Invitrogen-Gibco). qPCR was performed in a 384-well plate format on an Roche 480 LightCycler Detection System (Roche Applied Science, Mannheim, Germany) with efficiency corrected software 4.0. PCR was performed using 50 ng of cDNA of each sample. The pre-validated hydrolysis probes for TG-2 were from human and mouse universal probe library (Roche, CA) and the primers for human and mouse are shown in Table 3. GAPDH Internal Standard (Roche) was used as an endogenous control. To standardize and evaluate scleral gene expression, aliquots of the same cDNA (50 ng) preparation were used as templates in all PCR reactions. The data was analyzed by comparative CT (MCT) method as previously described in Brink N, Szamel M, Young A R, Wittern K P, Bergemann J., “Comparative quantification of IL-1, IL-10, Il-10r, TNF and IL-7 mRNA levels in UV-irradiated human skin in vivo”, Inflamm Res. 2000 June; 49(6):290-6.

TGase 5 transcript = experiment: as above; settings: 0.01-10 μM for 5 days, qPCR normalized to GAPDH
Protocol: as §5, §1, §6

TGase-3 transcript = experiment: as above; settings: 0.01-10 μM for 5 days, qPCR normalized to GAPDH
Protocol: as §5, §1, §6

[8] = tested on: TGase 2 (TGM-2) transcript; experiment: as above; settings: 0.01-10 μM for 5 days, qPCR normalized to GAPDH
Protocol: as §5
Murine scleral derived fibroblasts were cultured to passage 2 and treated to exogenous atropine or carbachol at 0.01 μM, 0.1 μM, 1 μM, 5 μM and 10 μM for 5 days. Following 5 days of treatment, the total RNA was extracted from these cells and RT-qPCR performed to determine transcript levels of TGM-2. The levels were normalized to GAPDH internal control. […] Height of bars or symbols represents mean and error bars SD. *: p<0.05 and **: p<0.001.
All cells used in examples described herein were between passages 2-4. Passaged cells were plated at a concentration of 2×10^5/mL into 6 well plates containing DMEM with 10% FBS. The cells were seen to attach to the bottom of the culture wells after 4 hours. […] The supernatant was poured into a new eppendorf tube and cell concentrations were determined using the Dc Protein assay Kit (Bio-Rad, MA). […] Cell lysate was collected for relative quantitative (q) PCR and protein analysis at day 5. […]

TG-2 [9] = experiment: TG-2 colorimetric microassay (transamidase activity) in lysate of treated mouse scleral fibroblasts; settings: murine scleral derived fibroblasts, 0.01-10 μM for 5 days
cultured SF cells = experiment: effect of TG-2 inhibitors on cultured scleral fibroblast growth (XCELLigence)
Protocol: (§7) To test the effect of TG-2 inhibitors on cultured scleral fibroblast growth, cultured SF cells at passage 4 were treated with TG-2 inhibitors at baseline, 0.1, 1, 10 and 100 μM for 5 days. The SF cell growth was monitored by XCELLigence cell impedance.

human SF = experiment: as above
Protocol: as §7

mouse SF = experiment: as above
Protocol: as §7

TGase-3 transcript level (TGase-3 transcript): opposite findings
transamidase (cross-linking) activity of TG-2 (TG-2 [9]): opposite effects
SMILES: C[N+](C)(C)CCOC(N)=O [carbachol]
TG-1 protein level (TG-1 [1]): the converse was true; also recorded: increased
TG-3 protein level (TG-3 [2]): the converse observed; also recorded: decreased
TG-5 protein level (TG-5 [3]): the converse was true; also recorded: increased
TG-1 protein level (TG-1 [4]): the converse was true; also recorded: increased
TG-2 protein level (TG-2 [5]): increased; also recorded: opposite effect
TG-3 protein level (TG-3 [6]): the converse observed; also recorded: decreased
TG-5 protein level (TG-5 [7]): the converse was true; also recorded: increased
TGase 1 transcript level (TGase 1 transcript): increased only by relatively higher concentrations
TGase 5 transcript level (TGase 5 transcript): increased only by relatively higher concentrations
TGase 2 (TGM-2) transcript level [8]: opposite effect; also recorded: opposite findings

SMILES: CN(C)c1cccc2c(S(=O)(=O)NCCCCCN)cccc12 [MDC, Monodansyl caderverine]
effect of the higher concentrations on SF cells (cultured SF cells): cell death and morphological change
concentration at which effective on SF cell growth (human SF): 10 µM
concentration at which effective on SF cell growth (mouse SF): 50 µM
